Test results taken from patent publication US8293729B2 (Boehringer Ingelheim International GmbH, priority 2009, dated 2012).

What follows are compounds tested against T1, human GPR119 receptor (Homo sapiens, UniProt Q8TDV5, S329A/T327A) (assay: cAMP assay (LANCE cAMP-384) in HEK293 cells stably expressing mutant human GPR119 receptor). Conditions: HEK293, 20 min; 10 μM; the 30th table; read-out: stimulation in % at 10 μM.
T1 construct: N-terminal leader […]; expressed in transfected cells
T1 sequence (Q8TDV5 with tags, fused parts or gaps T327A/S329A): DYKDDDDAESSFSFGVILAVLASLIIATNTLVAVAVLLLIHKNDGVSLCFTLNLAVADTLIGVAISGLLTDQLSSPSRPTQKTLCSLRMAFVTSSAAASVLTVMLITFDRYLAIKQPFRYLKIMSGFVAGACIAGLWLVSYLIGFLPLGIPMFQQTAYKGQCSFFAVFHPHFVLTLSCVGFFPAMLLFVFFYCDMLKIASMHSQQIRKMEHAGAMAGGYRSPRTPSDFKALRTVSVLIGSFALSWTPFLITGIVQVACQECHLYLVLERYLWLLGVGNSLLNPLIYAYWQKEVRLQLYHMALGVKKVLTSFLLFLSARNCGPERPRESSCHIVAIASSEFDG
Format: cell-based
Procedure: Quantitative detection of cAMP accumulation from cells expressing human GPR119 receptor was achieved using Perkin Elmer's LANCE cAMP-384 Kit (Cat#AD0264) according to the manufacturer's protocol. Briefly, HEK293 cells stably expressing a mutant form of the human GPR119 receptor (Methionine 1 replaced with the amino acid sequence […] (SEQ ID NO: 1), and T327 & S329 changed to alanines) were grown to 50-70% confluency in cell culture media (DMEM, 10% heat inactivated Fetal Bovine Serum, 50 I.U./mL penicillin, 50 μg/mL streptomycin, 10 mM HEPES, 20 μg/mL G418 Sulfate). On the day of the assay, GPR119 stable HEK293 cells were lifted from the tissue culture plate and 1000 cells/well were incubated along with various concentrations of test compounds for 20 min at 37° C. Detection Buffer (50mM HEPES, 10mM calcium chloride, 0.35% Triton X-100, 1 mg/mL BSA) containing cAMP-specific antibody was then added to all wells and allowed to equilibrate in the dark for 10 minutes at room temperature. Upon equilibration, Detection Buffer containing europium-labeled cAMP tracer complex was added to all wells and allowed to react for 1 hour at room temperature. After 1 hour, bound europium-labeled cAMP tracer was measured using a Perkin Elmer ViewLux. The quantity of cAMP generated in each well was derived from a standard curve. EC50 was determined using nonlinear regression analysis of the cAMP values over a range of agonist concentration (12 points spanning the range from 30 μM to 100pM).
For some compounds for which no EC50 value could be determined, the efficacy is provided at a single concentration (10 μM) yielding % stimulation values.

Structure (SMILES) | activation at 10 µM [%]
CC(C)OC(=O)N1CCC(ON=C2CCN(c3ncc(CN4CCCC4=O)cc3F)CC2)CC1 [Example 54-4] | 93

Same assay, conditions: HEK293, 20 min; at 10 μM; printed in EC50 column of the 36th table; read-out: stimulation in % at 10 μM

Structure (SMILES) | activation at 10 µM [%]
CC(CCN1CCC(ON=C2CCN(c3ccc(S(C)(=O)=O)cc3F)CC2)CC1)c1ccccc1 (stereo not drawn) [Example 66-24] | 53

Same assay, conditions: HEK293, 20 min; single concentration 10 μM; given where no EC50 value could be determined; read-out: % stimulation at 10 μM

Structure (SMILES) | activation at 10 µM [%]
CC(C)OC(=O)N1CCC(ON=C2CCN(c3cc(F)c(C4=NCCN4)cc3F)CC2)CC1 [Example 19-1, 4-{1-[4-(4,5-Dihydro-1H-imidazol-2-yl)-2,5-difluoro-phenyl]-piperidin-4-ylideneaminooxy}-piperidine-1-carboxylic acid isopropyl ester] | 53
COc1cccc(-c2cc(F)c(N3CCC(=NOC4CCN(C(=O)OC(C)C)CC4)CC3)cc2F)n1 [Example 27-11] | 80
CC(C)OC(=O)N1CCC(ON=C2CCN(c3cc(Br)ccn3)CC2)CC1 [Example 2-67] | 54

Same assay, conditions: cAMP accumulation, HEK293 cells stably expressing mutant human GPR119; read-out: EC50

Structure (SMILES) | EC50 [nM]
CC(C)OC(=O)N1CCC(ON=C2CCN(c3cc(F)c(-c4cccnc4)cc3F)CC2)CC1 [Example 27-4] | 182
CC(C)OC(=O)N1CCC(ON=C2CCN(c3cc(F)c(Cn4nccn4)cc3F)CC2)CC1 [Example 14-13] | 16
CC(C)OC(=O)N1CCC(ON=C2CCN(c3cc(F)c(Br)cc3F)CC2)CC1 [Example 2-40] | 2000
Cc1ccsc1-c1cc(F)c(N2CCC(=NOC3CCN(C(=O)OC(C)C)CC3)CC2)cc1F [Example 27-24] | 329
CC(C)OC(=O)N1CCC(ON=C2CCN(c3cc(F)c(CNS(N)(=O)=O)cc3F)CC2)CC1 [Example 17-1] | 312
CC(C)OC(=O)N1CCC(ON=C2CCN(c3cc(F)ccc3C=O)CC2)CC1 [Example 2-19] | 345
CC(C)OC(=O)N1CCC(ON=C2CCN(c3cc(Cl)c(F)cc3C(=O)O)CC2)CC1 [Example 2-21] | > 10000
CC(C)OC(=O)N1CCC(ON=C2CCN(c3ccc(C=O)c(O)c3)CC2)CC1 [Example 2-30] | > 10000
CC(C)OC(=O)N1CCC(ON=C2CCN(c3ccccc3)CC2)CC1 [Example 32-1, 4-(1-Phenyl-piperidin-4-ylideneaminooxy)-piperidine-1-carboxylic acid isopropyl ester] | > 10000
CC(C)OC(=O)N1CCC(ON=C2CCN(c3cc(F)c(Cn4cccn4)cc3F)CC2)CC1 [Example 14-1, 4-{1[2,5-Difluoro-4-(pyrazol-1-ylmethyl)-phenyl]-piperidin-4-ylideneaminooxy}-piperidine-1-carboxylic acid isopropyl ester] | 38
CC(C)(C)OC(=O)N1CCC(ON=C2CCN(c3ccc(S(C)(=O)=O)cc3F)CC2)CC1 [Example 1-1, tert-Butyl 4-[1-(2-Fluoro-4-methanesulfonylphenyl)piperidin-4-ylideneaminooxy]piperidine-1-carboxylate] | 29
CC(C)OC(=O)N1CCC(ON=C2CCN(c3cc(F)c(-c4cnco4)cc3F)CC2)CC1 [Example 20-1, 4-[1-(2,5-Difluoro-4-oxazol-5-yl-phenyl)-piperidin-4-ylideneaminooxy]-piperidine-1-carboxylic acid isopropyl ester] | 100
CC(C)OC(=O)N1CCC(ON=C2CCN(c3cc(F)c(-n4cccc4)cc3F)CC2)CC1 [Example 22-2] | 767
Cc1cnccc1N1CCC(=NOC2CCN(C(=O)OC(C)C)CC2)CC1 [Example 2-51] | 951
CC(C)OC(=O)N1CCC(ON=C2CCN(c3cc(F)c(CNCCF)cc3F)CC2)CC1 [Example 5-9] | 703
CC(C)OC(=O)N1CCC(ON=C2CCN(c3cc(F)c(-c4ccoc4)cc3F)CC2)CC1 [Example 27-3] | 591
Cc1ccc(-c2cc(F)c(N3CCC(=NOC4CCN(C(=O)OC(C)C)CC4)CC3)cc2F)nc1 [Example 27-26] | 861
CCOC(=O)Nc1cc(F)c(N2CCC(=NOC3CCN(C(=O)OC(C)C)CC3)CC2)cc1F [Example 35-2] | 18
CC(C)OC(=O)N1CCC(ON=C2CCN(c3cc(F)c(CNS(C)(=O)=O)cc3F)CC2)CC1 [Example 16-3] | 51
CC(C)OC(=O)N1CCC(ON=C2CCN(c3ccncc3F)CC2)CC1 [Example 2-72] | 750
CC(C)OC(=O)N1CCC(ON=C2CCN(c3cc(F)c(CNC=O)cc3F)CC2)CC1 [Example 16-8] | 120

Same assay, conditions: the 15th table; read-out: EC50

Structure (SMILES) | EC50 [nM]
CC(C)OC(=O)N1CCC(ON=C2CCN(c3cc(F)c(C(=O)N4CCCC[C@H]4CN4CCCC4)cc3F)CC2)CC1 [Example 29-31] | 225
CC(C)OC(=O)N1CCC(ON=C2CCN(c3cc(F)c(C(=O)NCCO)cc3F)CC2)CC1 [Example 29-11] | 84
CC(C)OC(=O)N1CCC(ON=C2CCN(c3cc(F)c(C(=O)N4CCN(C)CC4)cc3F)CC2)CC1 [Example 29-4] | 80

Same assay, conditions: the 19th table; unit inferred; read-out: EC 50

Structure (SMILES) | EC50 [nM]
CCc1cnc(N2CCC(ON=C3CCN(c4cc(F)c(C(=O)NCC5COCCN5)cc4F)CC3)CC2)nc1 (stereo not drawn) [Example 29-87] | 128
CCc1cnc(N2CCC(ON=C3CCN(c4cc(F)c(C(=O)N5CCNC[C@@H]5C)cc4F)CC3)CC2)nc1 [Example 29-110] | 256

Same assay, conditions: the 32nd table; read-out: EC50

Structure (SMILES) | EC50 [nM]
Cc1csc(N2CCC(ON=C3CCN(c4ccc(S(C)(=O)=O)cc4F)CC3)CC2)n1 [Example 63-17] | > 10000

Same assay, conditions: the 33rd table; read-out: EC50

Structure (SMILES) | EC50 [nM]
CS(=O)(=O)c1ccc(N2CCC(=NOC3CCN(C(=O)OCCn4cccc4)CC3)CC2)c(F)c1 [Example 64-18] | 461
CS(=O)(=O)c1ccc(N2CCC(=NOC3CCN(C(=O)OCCC4CC4)CC3)CC2)c(F)c1 [Example 64-39] | 127
CCOC(=O)C1CC1COC(=O)N1CCC(ON=C2CCN(c3ccc(S(C)(=O)=O)cc3F)CC2)CC1 (stereo not drawn) [Example 64-31] | 107
CCC(CC)COC(=O)N1CCC(ON=C2CCN(c3ccc(S(C)(=O)=O)cc3F)CC2)CC1 [Example 64-49] | 54

Same assay, conditions: the 34th table, compounds 65-1 to 65-24; read-out: EC50

Structure (SMILES) | EC50 [nM]
CC(C)NC(=O)N1CCC(ON=C2CCN(c3ccc(S(C)(=O)=O)cc3F)CC2)CC1 [Example 65-8] | > 10000
CC(C)COC(=O)N1CCC(ON=C2CCN(c3ccc(S(C)(=O)=O)cc3F)CC2)CC1 [Example 65-13] | 82

Same assay, conditions: the 36th table, compounds 66-1 to 66-51; read-out: EC50

Structure (SMILES) | EC50 [nM]
CS(=O)(=O)c1ccc(N2CCC(=NOC3CCN(Cc4cccc(C(F)(F)F)c4)CC3)CC2)c(F)c1 [Example 66-30] | 1740
CS(=O)(=O)c1ccc(N2CCC(=NOC3CCN(Cc4ccc(OC(F)(F)F)cc4)CC3)CC2)c(F)c1 [Example 66-42] | 503
CS(=O)(=O)c1ccc(N2CCC(=NOC3CCN(Cc4ccccn4)CC3)CC2)c(F)c1 [Example 66-3] | > 10000
CS(=O)(=O)c1ccc(N2CCC(=NOC3CCN(Cc4ccccc4Cl)CC3)CC2)c(F)c1 [Example 66-17] | 661

Same assay, conditions: the 37th table, compounds 66-52 to 66-64; read-out: EC50

Structure (SMILES) | EC50 [nM]
Cc1ccc(CN2CCC(ON=C3CCN(c4cc(F)c(S(C)(=O)=O)cc4F)CC3)CC2)cc1 [Example 66-54] | 44
CCc1ccc(CN2CCC(ON=C3CCN(c4cc(F)c(S(C)(=O)=O)cc4F)CC3)CC2)cc1 [Example 66-55] | 37

Same assay, conditions: the 38th table, compounds 66-65 to 66-72; read-out: EC50

Structure (SMILES) | EC50 [nM]
CNC(=O)c1cc(F)c(N2CCC(=NOC3CCN(Cc4ccc(C)cc4)CC3)CC2)cc1F [Example 66-70] | 193

Same assay, conditions: the 43rd table, compounds 75-1 to 75-38; read-out: EC50

Structure (SMILES) | EC50 [nM]
CC(C)OC(=O)N1CCC(ON=C2CCN(c3cc(F)c(CC(=O)N4CCCC(CN(C)C)C4)cc3F)CC2)CC1 (stereo not drawn) [Example 75-37] | 155
CC(C)OC(=O)N1CCC(ON=C2CCN(c3cc(F)c(CC(=O)N4CCC(N)CC4)cc3F)CC2)CC1 [Example 75-12] | 92

Same assay, conditions: the 44th table, compounds 77-1 to 77-14; read-out: EC50

Structure (SMILES) | EC50 [nM]
CCc1cnc(N2CCC(ON=C3CCN(c4cc(F)c(CC(=O)N5CC[C@H](N)C5)cc4F)CC3)CC2)nc1 [Example 77-12] | 19
